Patent US8592455B2 (priority 2008, dated 2013)
pIC50: −log10 of the molar value.

Legend:
Pim3 kinase = Pim3 kinase (Homo sapiens (Human), UniProt Q86V86); settings: read-out: Pim3 IC50
Pim1 kinase = Pim1 kinase (Homo sapiens (Human), UniProt P11309); settings: read-out: Pim1 IC50
Pim1 kinase, sequence (P11309 whole entry): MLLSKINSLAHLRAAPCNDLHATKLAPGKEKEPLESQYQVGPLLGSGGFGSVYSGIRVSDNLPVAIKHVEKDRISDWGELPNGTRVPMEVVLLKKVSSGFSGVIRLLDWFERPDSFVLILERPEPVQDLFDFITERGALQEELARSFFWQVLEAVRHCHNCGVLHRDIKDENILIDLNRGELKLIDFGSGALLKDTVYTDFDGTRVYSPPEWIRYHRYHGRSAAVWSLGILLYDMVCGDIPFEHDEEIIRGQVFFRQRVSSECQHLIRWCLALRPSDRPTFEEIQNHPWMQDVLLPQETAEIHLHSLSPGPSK

Compound	pIC50 (Pim3 kinase)	pIC50 (Pim1 kinase)
CC1(C)C[C@H](N)C[C@H](c2ccncc2NC(=O)c2ccc(F)c(-c3c(F)cccc3F)n2)C1 [Example 49, N-(4-((1R,5R)-5-amino-3,3-dimethylcyclohexyl)pyridin-3-yl)-6-(2,6-difluorophenyl)-5-fluoropicolinamide]	8.70	9.00
C[C@@H]1C[C@H](N)C[C@H](c2ccncc2NC(=O)c2nc(-c3c(F)cccc3F)c(F)cc2N)C1 [Example 51, 3-amino-N-(4-((1R,3S,5S)-3-amino-5-methylcyclohexyl)pyridin-3-yl)-6-(2,6-difluorophenyl)-5-fluoropicolinamide]	9.00	9.00
N[C@H]1CCC[C@@H](c2ccncc2NC(=O)c2ccc(F)c([C@H]3CC[C@@H](O)CC3)n2)C1 [Example 53, N-(4-((1R,3S)-3-aminocyclohexyl)pyridin-3-yl)-5-fluoro-6-((1s,4s)-4-hydroxycyclohexyl)picolinamide]	7.19	8.00
N[C@H]1CCC[C@@H](c2ccncc2NC(=O)c2ccc(F)c([C@H]3CC[C@H](O)CC3)n2)C1 [Example 56, N-(4-((1R,3S)-3-aminocyclohexyl)pyridin-3-yl)-5-fluoro-6-((1r,4r)-4-hydroxycyclohexyl)picolinamide]	6.99	7.96
C[C@@H]1C[C@H](N)C[C@H](c2ccncc2NC(=O)c2ccc(F)c(-c3cc(F)ccc3F)n2)C1 [Example 61, N-(4-((1R,3S,5S)-3-amino-5-methylcyclohexyl)pyridin-3-yl)-6-(2,5-difluorophenyl)-5-fluoropicolinamide]	8.40	9.00
C[C@@H]1C[C@H](N)C[C@H](c2ccncc2NC(=O)c2cccc(-c3ccccc3F)n2)C1 [Example 62, N-(4-((1R,3S,5S)-3-amino-5-methylcyclohexyl)pyridin-3-yl)-6-(2-fluorophenyl)picolinamide]	8.52	9.00
C[C@@H]1C[C@H](N)C[C@H](c2ccncc2NC(=O)c2cccc(-c3c(F)cccc3F)n2)C1 [Example 63, N-(4-((1R,3S,5S)-3-amino-5-methylcyclohexyl)pyridin-3-yl)-6-(2,6-difluorophenyl)picolinamide]	8.70	9.00
CCCOc1ccc(F)c(-c2nc(C(=O)Nc3cnccc3[C@@H]3CC[C@H](O)[C@H](N)C3)ccc2F)c1 [Example 64, N-(4-((1R,3R,4S)-3-amino-4-hydroxycyclohexyl)pyridin-3-yl)-5-fluoro-6-(2-fluoro-5-propoxyphenyl)picolinamide]	8.30	8.70
CCCOc1ccc(F)c(-c2nc(C(=O)Nc3cnccc3[C@@H]3CC[C@H](O)[C@H](N)C3)c(N)cc2F)c1 [Example 67, 3-amino-N-(4-((1R,3R,4S)-3-amino-4-hydroxycyclohexyl)pyridin-3-yl)-5-fluoro-6-(2-fluoro-5-propoxyphenyl)picolinamide]	8.52	9.00
Cc1ccc(F)c(-c2cccc(C(=O)Nc3cnccc3[C@H]3C[C@@H](N)[C@@H](O)[C@@H](C)C3)n2)c1 [Example 74, N-(4-((1R,3R,4S,5S)-3-amino-4-hydroxy-5-methylcyclohexyl)pyridin-3-yl)-6-(2-fluoro-5-methylphenyl)picolinamide]	8.40	9.00
C[C@H]1C[C@@H](c2ccncc2NC(=O)c2cccc(-c3c(F)cccc3F)n2)C[C@@H](N)[C@H]1O [Example 76, N-(4-((1R,3R,4S,5S)-3-amino-4-hydroxy-5-methylcyclohexyl)pyridin-3-yl)-6-(2,6-difluorophenyl)picolinamide]	8.70	9.00
N[C@H]1CCC[C@@H](c2ccncc2NC(=O)c2ccc(F)c(-c3cccc(F)c3F)n2)C1 [Example 79, N-(4-((1R,3S)-3-aminocyclohexyl)pyridin-3-yl)-6-(2,3-difluorophenyl)-5-fluoropicolinamide]	8.52	8.70
N[C@H]1CCC[C@@H](c2ccncc2NC(=O)c2nc(-c3c(F)cccc3F)ccc2F)C1 [Example 80, N-(4-((1R,3S)-3-aminocyclohexyl)pyridin-3-yl)-6-(2,6-difluorophenyl)-3-fluoropicolinamide]	8.15	8.22
N[C@H]1CCC[C@@H](c2ccncc2NC(=O)c2ccc(F)c(-c3ccc(F)cc3F)n2)C1 [Example 82, N-(4-((1R,3S)-3-aminocyclohexyl)pyridin-3-yl)-6-(2,4-difluorophenyl)-5-fluoropicolinamide]	8.05	8.52
N[C@@H]1C[C@H](c2ccncc2NC(=O)c2cccc(-c3ccccc3F)n2)CC[C@@H]1O [Example 83, N-(4-((1R,3R,4S)-3-amino-4-hydroxycyclohexyl)pyridin-3-yl)-6-(2-fluorophenyl)picolinamide]	8.30	8.40
Nc1ccc(-c2c(F)cccc2F)nc1C(=O)Nc1cnccc1C1=CC(N)C(O)CC1 (stereo not drawn) [Example 92, 3-amino-N-(4-(trans)-3-amino-4-hydroxycyclohex-1-enyl)pyridin-3-yl)-6-(2,6-difluorophenyl)picolinamide]	8.30	8.70

Compound	pIC50 (Pim3 kinase)	pIC50 (Pim1 kinase)
Nc1ccc(-c2c(F)cccc2F)nc1C(=O)Nc1cnccc1C1=C[C@@H](N)[C@@H](O)CC1 [Example 93]	8.30	9.00
C[C@@H]1CN(c2ccncc2NC(=O)c2nc(-c3c(F)cccc3F)ccc2N)C[C@@H](N)[C@H]1O [Example 103, 3-amino-N-(4-((3R,4S,5R)-3-amino-4-hydroxy-5-methylpiperidin-1-yl)pyridin-3-yl)-6-(2,6-difluorophenyl)picolinamide]	8.40	8.70
Cc1ccc(F)c(-c2cccc(C(=O)Nc3cnccc3[C@H]3C[C@@H](N)C[C@@H](C(F)(F)F)C3)n2)c1 [Example 108, N-(4-((1R,3R,5S)-3-amino-5-(trifluoromethyl)cyclohexyl)pyridin-3-yl)-6-(2-fluoro-5-methylphenyl)picolinamide]	8.52	9.00
N[C@@H]1C[C@H](c2ccncc2NC(=O)c2ccc(F)c(C3CCCCC3)n2)C[C@H](C(F)(F)F)C1 [Example 111, N-(4-((1R,3R,5S)-3-amino-5-(trifluoromethyl)cyclohexyl)pyridin-3-yl)-6-cyclohexyl-5-fluoropicolinamide]	7.96	8.70
C[C@H]1CN(c2ccncc2NC(=O)c2ccc(F)c(-c3ccccc3F)n2)C[C@@H](O)[C@@H]1O [Example 114, N-(4-((3R,4R,5S)-3,4-dihydroxy-5-methylpiperidin-1-yl)pyridin-3-yl)-5-fluoro-6-(2-fluorophenyl)picolinamide]	9.00	9.00
C[C@H]1CN(c2ccncc2NC(=O)c2cccc(-c3c(F)cccc3F)n2)C[C@@H](O)[C@@H]1O [Example 115, 6-(2,6-difluorophenyl)-N-(4-((3R,4R,5S)-3,4-dihydroxy-5-methylpiperidin-1-yl)pyridin-3-yl)picolinamide]	9.00	9.00
C[C@H]1CN(c2ccncc2NC(=O)c2ccc(F)c(-c3cccnc3)n2)C[C@@H](N)[C@@H]1O [Example 118, N-(4-((3R,4R,5S)-3-amino-4-hydroxy-5-methylpiperidin-1-yl)pyridin-3-yl)-3-fluoro-2,3′-bipyridine-6-carboxamide]	8.05	8.40
C[C@H]1CN(c2ccncc2NC(=O)c2ccc(F)c(-c3ccncc3F)n2)C[C@@H](N)[C@@H]1O [Example 119, N-(4-((3R,4R,5S)-3-amino-4-hydroxy-5-methylpiperidin-1-yl)pyridin-3-yl)-3,3′-difluoro-2,4′-bipyridine-6-carboxamide]	8.70	9.00
C[C@H]1CN(c2ccncc2NC(=O)c2ccc(F)c(-c3ccncc3)n2)C[C@@H](N)[C@@H]1O [Example 120, N-(4-((3R,4R,5S)-3-amino-4-hydroxy-5-methylpiperidin-1-yl)pyridin-3-yl)-3-fluoro-2,4′-bipyridine-6-carboxamide]	8.15	8.52
COc1cc(F)c(-c2nc(C(=O)Nc3cnccc3[C@H]3C[C@@H](N)CC(C)(C)C3)ccc2F)c(F)c1 [Example 123, N-(4-((1R,5R)-5-amino-3,3-dimethylcyclohexyl)pyridin-3-yl)-6-(2,6-difluoro-4-methoxyphenyl)-5-fluoropicolinamide]	8.70	9.00
N[C@H]1CCC[C@@H](c2ccncc2NC(=O)c2ccc(F)c(-c3c(F)ccc(O)c3F)n2)C1 [Example 124, N-(4-((1R,3S)-3-aminocyclohexyl)pyridin-3-yl)-6-(2,6-difluoro-3-hydroxyphenyl)-5-fluoropicolinamide]	9.00	9.00
C[C@H]1C[C@@H](c2ccncc2NC(=O)c2ccc(F)c(-c3cccc(C(F)(F)F)c3F)n2)C[C@@H](N)[C@@H]1O [Example 127, N-(4-((1R,3R,4R,5S)-3-amino-4-hydroxy-5-methylcyclohexyl)pyridin-3-yl)-5-fluoro-6-(2-fluoro-3-(trifluoromethyl)phenyl)picolinamide]	7.57	7.96
C[C@@H]1C[C@H](N)C[C@H](c2ccncc2NC(=O)c2ccc(F)c(-c3c(F)ccc(F)c3F)n2)C1 [Example 129, N-(4-((1R,3S,5S)-3-amino-5-methylcyclohexyl)pyridin-3-yl)-5-fluoro-6-(2,3,6-trifluorophenyl)picolinamide]	8.70	9.00
Nc1cc(F)c(-c2ccncc2F)nc1C(=O)Nc1cnccc1[C@@H]1CCC[C@H](N)C1 [Example 136, 5-amino-N-(4-((1R,3S)-3-aminocyclohexyl)pyridin-3-yl)-3,3′-difluoro-2,4′-bipyridine-6-carboxamide]	8.05	8.70
CC1CC(c2ccncc2NC(=O)c2ccc(F)c(-c3c(F)cccc3F)n2)=CC(O)C1 (centres unmarked) [Example 137, 6-(2,6-difluorophenyl)-5-fluoro-N-(4-(3-hydroxy-5-methylcyclohex-1-enyl)pyridin-3-yl)picolinamide]	8.15	9.00
